ChEMBL document CHEMBL1926581, “Cyclic ether-containing macrolactins, antimicrobial 24-membered isomeric macrolactones from a marine Bacillus sp” (2011)
In brackets after ≈: the same amount, converted by molar mass.

Columns and labels:
Format in all cases: functional
Escherichia coli = assay: Antibacterial activity against Escherichia coli KCTC 1923 after 24 hrs by broth microdilution method; conditions: KCTC 1923, 24 h
Bacillus subtilis = assay: Antibacterial activity against Bacillus subtilis KCTC 1021 after 24 hrs by broth microdilution method; conditions: KCTC 1021, 24 h
Saccharomyces cerevisiae = assay: Antifungal activity against Saccharomyces cerevisiae KCTC 7913 after 48 hrs by broth microdilution method; conditions: KCTC 7913, 48 h

MIC (Escherichia coli)	MIC (Bacillus subtilis)	MIC (Saccharomyces cerevisiae)	SMILES
0.16 µM (≈ 0.067 µg/mL)	0.16 µM (≈ 0.067 µg/mL)	0.16 µM (≈ 0.067 µg/mL)	C[C@@H]1CCC/C=C/[C@@H]2O[C@H](C[C@@H](O)C/C=C\C=C\[C@@H](O)C/C=C/C=C\C(=O)O1)[C@H]2O
0.16 µM (≈ 0.067 µg/mL)	0.16 µM (≈ 0.067 µg/mL)	0.02 µM (≈ 0.00837 µg/mL)	C[C@@H]1CCC[C@@H]2O[C@H]2/C=C/[C@H](O)C[C@@H](O)C/C=C\C=C\[C@@H](O)C/C=C/C=C\C(=O)O1
0.16 µM (≈ 0.067 µg/mL)	0.16 µM (≈ 0.067 µg/mL)	0.16 µM (≈ 0.067 µg/mL)	C[C@@H]1CCC/C=C/[C@@H]2O[C@@H](C/C=C\C=C\[C@@H](O)C/C=C/C=C\C(=O)O1)C[C@@H](O)[C@H]2O
